Patent publication US10294217B2, “Fluoroindole derivatives as muscarinic M1 receptor positive allosteric modulators” (Suven Life Sciences Limited, priority 2015, dated 2019)

System: cerebral blood flow in the frontal cortex
Test: Modulation of cerebral blood flow in frontal cortex
Format: in vivo
Conditions: anaesthetized rats, intravenous, Laser Doppler, FIG. 2
Experimental: Modulation of Cerebral Blood Flow in Frontal Cortex:
The effect of test compound on modulation of cerebral blood flow was evaluated using rats.
Rats were acclimatized to the laboratory environment for at least 7 days. Rats (300-350 grams) were housed in a group of four in a controlled environment (Temp=21±3° C.; Humidity=30-70%) and maintained on a 12-hour light/dark cycle with lights on at 07:00 AM. Food and water was provided ad libitum.
Rats were anaesthetized with 12% urethane (i.p.). Animal's body core temperature was maintained at 37° C. via heating pad and rectal temperature probe. A small incision was made at one of the ventral side of the hind limb and the femoral vein was cannulated with PE10 tubing for drug application. Then animal was placed into a stereotaxic frame and a midline incision was made to expose the skull. A burr hole was drilled over the frontal cortex (stereotaxic coordinates 1 mm anterior and 4 mm lateral to bregma). Oxygen was supplied through the nose cone of the seterotaxic apparatus which was connected to the controlled gaseous supplier with a flow of 200 mL/minute. Laser Doppler probe (AD Instruments Inc) was placed over the hole to monitor cerebral blood flow. […] Data obtained was calculated as percent increase relative to resting basal blood flow level. […]

Cn1cc(Cn2cc(C(=O)N[C@H]3CCCC[C@@H]3O)c3c(F)cccc32)cn1 [Example 1, N-[(1S,2S)-2-Hydroxycyclohexyl]-1-(1-methyl-1H-pyrazol-4-ylmethyl)-4-fluoro-1H-indole-3-carboxamide]
cerebral blood flow: significantly increased the cerebral blood flow
